The values that follow come from US20250283887A1, “FLUORESCENT-PROBE SOLUTION” (GORYO CHEMICAL, INC., priority 2022, published 2025).

SMILES strings stand for the structures.

The nature of series [1]: Storage stability of fluorescent-probe solutions of Test Examples 1 to 11 in sealed glass vials (HPLC purity). Type of series: physicochemical. As to the method: A 25 mL glass vial (manufactured by Daiwa Special Glass Co., Ltd.) was filled with 0.125 mL to 0.312 mL of the fluorescent-probe solution obtained in each of Test Examples 1 to 11, and the opening of the glass vial was plugged with a rubber stopper (No. 20-T manufactured by Maruemu Corporation), and then tightly sealed with an aluminum cap over the rubber stopper. The vial filled with each of the fluorescent-probe solutions was stored at 25° C. or 50° C. in the dark for from 25 days to 32 days.
The purity of HMRef-αMan in each of the fluorescent-probe solutions within 12 hours after preparation, and that in each of the fluorescent-probe solutions after storage for from 25 days to 32 days in the vials were measured as described below, and the difference between the purities (the former−the latter) was divided by the number of storage days. Thus, the reduction amount of the purity per day was calculated. In addition, the reduction amount of the purity (converted value) in storage (3 years) at room temperature or in storage (1 year) at 50° C. was calculated from the reduction amount of the purity per day. All the purities of HMRef-αMan within 12 hours after the preparation of the fluorescent-probe solutions obtained in Test Examples 1 to 11 were 99% or more.
HPLC analysis was performed under the following conditions through use of a liquid chromatography system (UltiMate 3000, Thermo Fisher Scientific Inc.), and the ratio of the peak area of HMRef-αMan with respect to the entire peak area was calculated as a purity. • Column: Meteoric core C8, 5 μm, 4.6×150 mm (YMC Co., Ltd.) • Column temperature: 25° C. • Mobile phase A: water/TFA (1,000:1) • Mobile phase B: acetonitrile/TFA (1,000:1) • Liquid-feeding amount: 1.0 mL/min. • Wavelength: 254 nm • Liquid feeding to mobile phase: The liquid was fed under the conditions shown in the following table. […]

A short description of series [2]: Storage stability of Tween 80-containing fluorescent-probe solutions of Test Examples 13 to 15 in sealed glass vials (HPLC purity). Particulars: vial stored at 25°C in the dark for 85 days; converted to 3 years (FIG. 4); DMSO 10-50 v/v % with Tween 80. Type of series: physicochemical. The protocol: HPLC analysis was performed under the following conditions through use of a liquid chromatography system (UltiMate 3000, Thermo Fisher Scientific Inc.), and the ratio of the peak area of HMRef-αMan with respect to the entire peak area was calculated as a purity. • Column: Meteoric core C8, 5 μm, 4.6×150 mm (YMC Co., Ltd.) • Column temperature: 25° C. • Mobile phase A: water/TFA (1,000:1) • Mobile phase B: acetonitrile/TFA (1,000:1) • Liquid-feeding amount: 1.0 mL/min. • Wavelength: 254 nm • Liquid feeding to mobile phase: The liquid was fed under the conditions shown in the following table.
A glass vial was filled with the fluorescent-probe solution obtained in each of Test Examples 13 to 15, and sealed with a rubber stopper. The vial filled with each of the fluorescent-probe solutions was stored at 25° C. in the dark for 85 days, and analysis was performed by liquid chromatography.
In the same manner as in Test Examples 1 to 11, the purity of HMRef-αMan and the content of the oxidized form thereof in each of the fluorescent-probe solutions within 12 hours after preparation, and those in each of the fluorescent-probe solutions after storage for 85 days in the vials were measured, and the reduction amount of the purity and the increase amount of the oxidized form in 3 years were calculated as converted values. […]

Take `OC[C@H]1O[C@H](Cc2ccc3c(c2)Oc2cc(NCC(F)(F)F)ccc2C32OCc3ccccc32)[C@@H](O)[C@@H](O)[C@@H]1O` (stereo partly shown) [HMRef-αMan]: the “main analog observed after storage (mass spectrometry of resolved HPLC peak)” value in series [1] (after storage for 25 to 32 days in the vials) is “an analog (oxidized form) in which two hydrogen atoms were lost from HMRef-αMan was observed as a main analog”. For the same compound, the stability during storage entry in series [1] (presence of water in the solvent, FIG. 1 and FIG. 2) is “improved”. Besides, the “reduction in purity of HMRef-αMan during storage” value in series [1] (vial stored at 25°C or 50°C in the dark for 25 to 32 days, converted to 3 years at room temperature / 1 year at 50°C (FIG. 1, FIG. 2), DMSO/water with or without phosphate) is reported as “suppressed by the presence of water in the solvent”; in series [2] it was “suppressed even when the content of the organic solvent is reduced by adding the solubilizer”.
